# Laboratory results reported in ChEMBL document CHEMBL1759913, “Discovery of the first non-ATP competitive IGF-1R kinase inhibitors: advantages in comparison with competitive inhibitors” (Bioorg Med Chem Lett, 2011).
# Tests used:
# Insulin receptor = Insulin receptor (Homo sapiens, UniProt P06213); assay: Inhibition of insulin receptor kinase
# MEF = assay: Antiproliferative activity against mouse MEF cells transfected with human IGF1R assessed as inhibition of IGF1-induced proliferation after 72 hrs by [14C]thymidine incorporation assay; format: functional, cell-based
# [1] = Metabolic stability in human microsomes assessed as compound remaining after 15 mins; format: ADME, Microsome; details: read-out: Stability
# Cytochrome P450 2C19 = Cytochrome P450 2C19 (Homo sapiens, UniProt P33261); assay: Inhibition of CYP2C19; format: ADME
# Cytochrome P450 2C19, sequence (P33261 whole entry): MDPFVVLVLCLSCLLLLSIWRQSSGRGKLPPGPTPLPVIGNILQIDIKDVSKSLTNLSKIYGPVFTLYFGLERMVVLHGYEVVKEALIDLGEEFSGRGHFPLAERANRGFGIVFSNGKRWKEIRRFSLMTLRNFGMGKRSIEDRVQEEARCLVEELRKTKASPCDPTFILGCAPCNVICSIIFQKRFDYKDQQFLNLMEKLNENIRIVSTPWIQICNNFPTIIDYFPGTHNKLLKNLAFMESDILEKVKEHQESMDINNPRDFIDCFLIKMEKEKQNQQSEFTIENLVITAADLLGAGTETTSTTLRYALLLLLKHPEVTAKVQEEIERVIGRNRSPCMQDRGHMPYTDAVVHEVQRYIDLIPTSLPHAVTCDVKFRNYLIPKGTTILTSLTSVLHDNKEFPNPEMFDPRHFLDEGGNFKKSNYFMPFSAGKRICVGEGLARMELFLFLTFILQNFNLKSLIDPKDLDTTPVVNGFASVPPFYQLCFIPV
# [2] = AUC (0 to infinity) in BALB/c mouse at 10 mg/kg, po; format: ADME, organism-based; parameters: time infinity, dose 10 mg/kg, route oral; details: plasma
# Cytochrome P450 2C9 = Cytochrome P450 2C9 (Homo sapiens, UniProt P11712); assay: Inhibition of CYP2C9; format: ADME
# Cytochrome P450 2C9, sequence (P11712 whole entry): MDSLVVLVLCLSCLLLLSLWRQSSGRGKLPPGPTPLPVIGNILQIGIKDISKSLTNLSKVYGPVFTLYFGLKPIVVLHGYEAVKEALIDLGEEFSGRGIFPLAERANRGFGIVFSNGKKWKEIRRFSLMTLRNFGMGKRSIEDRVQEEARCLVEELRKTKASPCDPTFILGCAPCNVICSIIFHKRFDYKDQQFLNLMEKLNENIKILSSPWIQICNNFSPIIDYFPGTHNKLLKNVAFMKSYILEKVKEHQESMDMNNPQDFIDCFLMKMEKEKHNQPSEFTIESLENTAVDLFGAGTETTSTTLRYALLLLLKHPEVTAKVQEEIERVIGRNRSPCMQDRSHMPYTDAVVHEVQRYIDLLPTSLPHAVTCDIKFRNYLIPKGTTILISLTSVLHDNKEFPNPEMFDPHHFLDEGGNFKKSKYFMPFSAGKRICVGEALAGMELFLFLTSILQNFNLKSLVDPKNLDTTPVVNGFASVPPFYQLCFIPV
# [3] = Solubility of compound; format: physicochemical
# Cytochrome P450 1A2 = biological target: T1, Cytochrome P450 1A2 (Homo sapiens, UniProt P05177); assay: Inhibition of CYP1A2; format: ADME
# T1 sequence (P05177 whole entry): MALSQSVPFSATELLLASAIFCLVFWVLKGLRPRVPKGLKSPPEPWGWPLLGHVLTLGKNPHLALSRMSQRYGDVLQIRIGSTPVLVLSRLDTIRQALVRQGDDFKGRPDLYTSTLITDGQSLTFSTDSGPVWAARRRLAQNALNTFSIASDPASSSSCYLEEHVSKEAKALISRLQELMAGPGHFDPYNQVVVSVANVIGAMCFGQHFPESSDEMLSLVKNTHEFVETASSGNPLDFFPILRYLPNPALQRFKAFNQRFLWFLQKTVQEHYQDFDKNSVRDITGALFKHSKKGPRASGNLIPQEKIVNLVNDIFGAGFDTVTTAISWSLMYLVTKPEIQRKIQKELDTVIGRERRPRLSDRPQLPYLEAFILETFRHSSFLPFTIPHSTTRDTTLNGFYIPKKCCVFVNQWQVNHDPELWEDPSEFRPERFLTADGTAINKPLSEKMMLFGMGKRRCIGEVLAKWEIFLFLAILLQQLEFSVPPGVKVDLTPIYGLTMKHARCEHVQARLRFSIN
# [4] = Cmax in BALB/c mouse plasma at 10 mg/kg, po upto 24 hrs; format: ADME, organism-based; parameters: dose 10 mg/kg, route oral
# [5] = Oral bioavailability in BALB/c mouse at 10 mg/kg; format: ADME, organism-based; details: in vivo
# Cytochrome P450 2D6 = Cytochrome P450 2D6 (Homo sapiens, UniProt P10635); assay: Inhibition of CYP2D6; format: ADME
# Cytochrome P450 2D6, sequence (P10635 whole entry): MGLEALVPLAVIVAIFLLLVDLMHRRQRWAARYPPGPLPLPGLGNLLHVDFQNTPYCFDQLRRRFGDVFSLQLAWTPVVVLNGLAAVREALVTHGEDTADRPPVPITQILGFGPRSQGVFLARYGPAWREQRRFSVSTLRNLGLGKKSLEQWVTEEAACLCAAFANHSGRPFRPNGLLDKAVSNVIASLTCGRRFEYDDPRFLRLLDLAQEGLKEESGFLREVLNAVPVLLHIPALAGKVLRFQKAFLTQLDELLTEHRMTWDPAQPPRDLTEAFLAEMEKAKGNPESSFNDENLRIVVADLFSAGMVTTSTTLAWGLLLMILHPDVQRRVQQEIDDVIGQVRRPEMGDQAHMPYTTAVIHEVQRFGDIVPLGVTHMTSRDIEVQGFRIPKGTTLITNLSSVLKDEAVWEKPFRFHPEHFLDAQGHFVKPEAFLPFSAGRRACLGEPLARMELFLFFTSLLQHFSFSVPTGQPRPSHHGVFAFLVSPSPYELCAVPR
# [6] = Metabolic stability in mouse liver microsomes assessed as compound remaining after 15 mins
# Cytochrome P450 3A4 = Cytochrome P450 3A4 (Homo sapiens, UniProt P08684); assay: Inhibition of CYP3A4; format: ADME
# Cytochrome P450 3A4, sequence (P08684 whole entry): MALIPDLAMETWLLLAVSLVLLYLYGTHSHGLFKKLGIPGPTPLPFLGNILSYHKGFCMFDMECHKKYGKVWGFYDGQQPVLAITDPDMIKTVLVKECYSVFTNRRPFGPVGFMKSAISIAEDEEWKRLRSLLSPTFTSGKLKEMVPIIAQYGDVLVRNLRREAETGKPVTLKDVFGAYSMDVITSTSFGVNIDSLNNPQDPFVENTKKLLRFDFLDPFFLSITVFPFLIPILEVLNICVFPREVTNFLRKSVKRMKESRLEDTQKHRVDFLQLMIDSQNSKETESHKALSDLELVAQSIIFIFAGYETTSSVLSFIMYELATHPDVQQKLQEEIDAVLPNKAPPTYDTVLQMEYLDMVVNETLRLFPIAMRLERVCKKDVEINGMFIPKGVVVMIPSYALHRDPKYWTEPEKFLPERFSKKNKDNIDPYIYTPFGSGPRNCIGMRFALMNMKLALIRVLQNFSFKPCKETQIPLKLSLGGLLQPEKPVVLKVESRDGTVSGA
# [7] = biological target: T2, Insulin-like growth factor 1 receptor (Homo sapiens, UniProt P08069); assay: Inhibition of IGF-induced autophosphosphorylation of GST-tagged human IGF1R expressed in baculovirus-SF21 cell system preincubated for 30 mins by time resolved-fluorescent assay
# T2 sequence (P08069 31-736 limits assumed): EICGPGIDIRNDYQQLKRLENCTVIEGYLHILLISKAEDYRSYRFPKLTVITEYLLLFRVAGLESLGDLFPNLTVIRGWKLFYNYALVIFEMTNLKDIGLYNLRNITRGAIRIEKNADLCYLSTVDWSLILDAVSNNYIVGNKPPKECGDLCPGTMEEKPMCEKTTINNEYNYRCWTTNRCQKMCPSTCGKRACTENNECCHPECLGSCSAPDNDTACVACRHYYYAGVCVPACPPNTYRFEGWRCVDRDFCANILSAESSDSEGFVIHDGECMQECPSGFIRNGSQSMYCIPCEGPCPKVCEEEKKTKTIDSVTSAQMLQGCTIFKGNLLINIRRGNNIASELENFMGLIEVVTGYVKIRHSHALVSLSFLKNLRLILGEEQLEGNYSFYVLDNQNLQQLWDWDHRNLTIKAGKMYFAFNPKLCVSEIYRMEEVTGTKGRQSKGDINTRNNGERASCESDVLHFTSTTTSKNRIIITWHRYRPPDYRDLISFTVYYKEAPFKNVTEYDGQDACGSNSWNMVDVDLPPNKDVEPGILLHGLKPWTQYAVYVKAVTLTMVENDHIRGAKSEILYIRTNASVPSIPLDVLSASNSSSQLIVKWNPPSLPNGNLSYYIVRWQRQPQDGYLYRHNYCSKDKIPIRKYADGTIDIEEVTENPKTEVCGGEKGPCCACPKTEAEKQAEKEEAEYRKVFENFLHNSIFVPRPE
# T2 sequence (P08069 741-1367 limits assumed): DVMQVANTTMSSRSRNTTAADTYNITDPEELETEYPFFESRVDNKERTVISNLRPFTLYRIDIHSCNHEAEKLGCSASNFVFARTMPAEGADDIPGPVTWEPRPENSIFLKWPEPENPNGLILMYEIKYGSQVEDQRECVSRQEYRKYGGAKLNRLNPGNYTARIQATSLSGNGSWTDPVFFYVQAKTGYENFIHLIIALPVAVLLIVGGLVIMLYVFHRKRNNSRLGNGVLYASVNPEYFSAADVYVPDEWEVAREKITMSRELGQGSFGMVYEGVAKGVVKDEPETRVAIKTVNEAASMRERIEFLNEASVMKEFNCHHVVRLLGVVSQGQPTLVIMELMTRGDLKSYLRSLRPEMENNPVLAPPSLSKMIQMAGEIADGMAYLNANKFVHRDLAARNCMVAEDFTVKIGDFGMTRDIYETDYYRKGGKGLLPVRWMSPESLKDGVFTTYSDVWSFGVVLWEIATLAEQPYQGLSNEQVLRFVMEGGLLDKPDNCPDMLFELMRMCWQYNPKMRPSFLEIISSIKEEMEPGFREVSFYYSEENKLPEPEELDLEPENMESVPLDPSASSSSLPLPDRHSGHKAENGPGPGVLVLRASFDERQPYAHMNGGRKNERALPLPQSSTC
# [8] = biological target: T2, Insulin-like growth factor 1 receptor; assay: Inhibition of IGF-induced autophosphosphorylation of GST-tagged human IGF1R expressed in baculovirus-SF21 cell system preincubated for 60 mins by time resolved-fluorescent assay
# [9] = biological target: T2, Insulin-like growth factor 1 receptor; assay: Inhibition of IGF-induced autophosphosphorylation of GST-tagged human IGF1R expressed in baculovirus-SF21 cell system preincubated for 5 mins by time resolved-fluorescent assay
# [10] = biological target: T2, Insulin-like growth factor 1 receptor; assay: Inhibition of autophosphosphorylation of human IGF1R expressed in IGF1-stimulated MCF7 cells by ELISA; format: cell-based
# [11] = biological target: T2, Insulin-like growth factor 1 receptor; assay: Inhibition of autophosphosphorylation of human IGF1R expressed in IGF1-stimulated MCF7 cells preincubated for 60 mins by ELISA; format: cell-based
# [12] = biological target: T2, Insulin-like growth factor 1 receptor; assay: Inhibition of IGF-induced autophosphosphorylation of GST-tagged human IGF1R expressed in baculovirus-SF21 cell system preincubated for 10 mins by time resolved-fluorescent assay
# [13] = biological target: T2, Insulin-like growth factor 1 receptor; assay: Inhibition of IGF-induced autophosphosphorylation of GST-tagged human IGF1R expressed in SF21 cells by time resolved-fluorescent assay
# [14] = biological target: T2, Insulin-like growth factor 1 receptor; assay: Inhibition of IGF-induced autophosphosphorylation of GST-tagged human IGF1R expressed in SF21 cells after 10 mins by time resolved-fluorescent assay
# Insulin receptor, sequence (P06213 28-758 limits assumed): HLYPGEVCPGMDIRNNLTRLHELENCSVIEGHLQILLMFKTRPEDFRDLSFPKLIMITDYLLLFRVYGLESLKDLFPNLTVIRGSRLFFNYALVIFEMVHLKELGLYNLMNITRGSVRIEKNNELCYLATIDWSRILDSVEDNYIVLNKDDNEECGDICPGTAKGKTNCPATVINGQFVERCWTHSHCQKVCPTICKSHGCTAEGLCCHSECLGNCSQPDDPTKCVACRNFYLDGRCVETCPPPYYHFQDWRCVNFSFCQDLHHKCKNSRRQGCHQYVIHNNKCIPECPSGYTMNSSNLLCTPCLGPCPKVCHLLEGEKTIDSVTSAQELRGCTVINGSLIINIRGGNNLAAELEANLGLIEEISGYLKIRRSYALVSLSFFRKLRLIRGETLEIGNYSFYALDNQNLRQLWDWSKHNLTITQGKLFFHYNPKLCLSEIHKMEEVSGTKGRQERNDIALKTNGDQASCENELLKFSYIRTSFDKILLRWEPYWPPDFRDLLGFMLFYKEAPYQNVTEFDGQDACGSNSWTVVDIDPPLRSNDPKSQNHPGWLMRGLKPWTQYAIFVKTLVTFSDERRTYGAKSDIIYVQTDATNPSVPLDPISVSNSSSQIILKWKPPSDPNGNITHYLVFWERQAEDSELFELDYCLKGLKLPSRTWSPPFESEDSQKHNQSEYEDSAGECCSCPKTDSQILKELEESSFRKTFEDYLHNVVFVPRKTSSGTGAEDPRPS
# Insulin receptor, sequence (P06213 763-1382 limits assumed): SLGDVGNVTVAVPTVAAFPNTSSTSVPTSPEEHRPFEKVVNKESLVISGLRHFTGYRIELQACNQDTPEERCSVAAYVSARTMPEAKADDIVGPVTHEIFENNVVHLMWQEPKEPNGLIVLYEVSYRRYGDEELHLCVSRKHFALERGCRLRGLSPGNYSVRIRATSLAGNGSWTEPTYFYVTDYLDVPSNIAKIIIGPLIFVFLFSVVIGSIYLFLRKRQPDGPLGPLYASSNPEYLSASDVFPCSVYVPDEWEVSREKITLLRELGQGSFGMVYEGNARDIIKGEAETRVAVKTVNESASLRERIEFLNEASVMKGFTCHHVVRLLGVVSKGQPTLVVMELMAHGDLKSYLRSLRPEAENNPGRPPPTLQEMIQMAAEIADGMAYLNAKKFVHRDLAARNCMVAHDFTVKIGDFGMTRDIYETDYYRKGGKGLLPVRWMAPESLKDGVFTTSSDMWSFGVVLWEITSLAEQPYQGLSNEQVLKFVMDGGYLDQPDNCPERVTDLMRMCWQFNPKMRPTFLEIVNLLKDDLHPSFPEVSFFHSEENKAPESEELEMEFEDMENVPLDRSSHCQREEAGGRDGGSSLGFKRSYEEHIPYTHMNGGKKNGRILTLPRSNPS
smiles,measurement,setting,value
C[C@H]1C(=O)N(c2ccc(S(=O)(=O)C(F)(F)F)cc2)C(=O)N1Cc1ccnc2ccccc12,IC50,Insulin receptor,300 nM
same,IC50,MEF,300 nM
same,remaining at 0.25 h,[1],82%
same,IC50,Cytochrome P450 2C19,> 15 µM
same,AUC(0-inf),[2],13200 ng·h/mL
same,IC50,Cytochrome P450 2C9,700 nM
same,solubility,[3],9.9 µg/mL
same,IC50,Cytochrome P450 1A2,> 15 µM
same,Cmax,[4],1490 ng/mL
same,bioavailability,[5],> 100%
same,IC50,Cytochrome P450 2D6,> 15 µM
same,remaining at 0.25 h,[6],83%
same,IC50,Cytochrome P450 3A4,> 15 µM
COc1cc2c(-c3cc4cccnc4[nH]3)cn(C)c2cc1OC,IC50,MEF,1600 nM
same,IC50,[7],33 nM
same,IC50,[8],35 nM
same,IC50,[9],34 nM
same,IC50,[10],145 nM
same,IC50,[11],180 nM
same,IC50,[12],34 nM
same,IC50,[13],55 nM
C[C@H]1C(=O)N(c2ccc([S+]([O-])C(F)(F)F)cc2)C(=O)N1Cc1ccnc2ccccc12 (stereo not given in full),IC50,[13],2520 nM
C[C@H]1C(=O)N(c2ccc(S(C)(=O)=O)cc2)C(=O)N1Cc1ccnc2ccccc12,IC50,[13],> 100000 nM
O=C1CN(Cc2ccnc3ccccc23)C(=O)N1c1ccc(S(=O)(=O)C(F)(F)F)cc1,IC50,[13],5400 nM
CC1(C)C(=O)N(c2ccc(S(=O)(=O)C(F)(F)F)cc2)C(=O)N1Cc1ccnc2ccccc12,IC50,[13],460 nM
CC1(C)C(=O)N(c2ccc(SC(F)(F)F)cc2)C(=O)N1Cc1ccncc1,IC50,MEF,282 nM
same,IC50,[10],117 nM
same,IC50,[14],264 nM
same,IC50,[13],264 nM
CC1(C)C(=O)N(c2ccc(SC(F)(F)F)cc2)C(=O)N1Cc1ccnc(N2CCCCC2)c1,IC50,[13],> 10000 nM
CC1(C)C(=O)N(c2ccc(SC(F)(F)F)cc2)C(=O)N1Cc1ccnc(N2CCOCC2)c1,IC50,[13],> 10000 nM
CN1CCN(c2cc(CN3C(=O)N(c4ccc(SC(F)(F)F)cc4)C(=O)C3(C)C)ccn2)CC1,IC50,[13],> 10000 nM
CC1(C)C(=O)N(c2ccc(SC(F)(F)F)cc2)C(=O)N1Cc1ccnc(N2CCNCC2)c1,IC50,[13],> 10000 nM
CC1(C)C(=O)N(c2ccc(SC(F)(F)F)cc2)C(=O)N1Cc1ccnc(C#N)c1,IC50,[13],> 10000 nM
CC1(C)C(=O)N(c2ccc(SC(F)(F)F)cc2)C(=O)N1Cc1ccnc(C(=O)O)c1,IC50,[13],> 10000 nM
CC1(C)C(=O)N(c2ccc(SC(F)(F)F)cc2)C(=O)N1Cc1ccnc(NS(C)(=O)=O)c1,IC50,[13],4710 nM
CN(C)c1cc(CN2C(=O)N(c3ccc(SC(F)(F)F)cc3)C(=O)C2(C)C)ccn1,IC50,[13],4500 nM
CC1(C)C(=O)N(c2ccc(SC(F)(F)F)cc2)C(=O)N1Cc1ccnc(C(N)=O)c1,IC50,[13],2950 nM
CCOc1cc(CN2C(=O)N(c3ccc(SC(F)(F)F)cc3)C(=O)C2(C)C)ccn1,IC50,[13],1850 nM
CC1(C)C(=O)N(c2ccc(SC(F)(F)F)cc2)C(=O)N1Cc1ccnc(NC2CCCCC2)c1,IC50,[13],1240 nM
COc1ccc(CNc2cc(CN3C(=O)N(c4ccc(SC(F)(F)F)cc4)C(=O)C3(C)C)ccn2)cc1,IC50,[13],1090 nM
CC1(C)C(=O)N(c2ccc(SC(F)(F)F)cc2)C(=O)N1Cc1ccnc(Nc2ccccc2)c1,IC50,[13],1060 nM
CC1(C)C(=O)N(c2ccc(SC(F)(F)F)cc2)C(=O)N1Cc1ccnc(NCc2ccccc2)c1,IC50,[13],1050 nM
CC1(C)C(=O)N(c2ccc(SC(F)(F)F)cc2)C(=O)N1Cc1ccnc(Cl)c1,IC50,[13],995 nM
CC(C)(C)OC(=O)Nc1cc(CN2C(=O)N(c3ccc(SC(F)(F)F)cc3)C(=O)C2(C)C)ccn1,IC50,[13],784 nM
CNC(=O)c1cc(CN2C(=O)N(c3ccc(SC(F)(F)F)cc3)C(=O)C2(C)C)ccn1,IC50,[13],703 nM
CCc1cc(CN2C(=O)N(c3ccc(SC(F)(F)F)cc3)C(=O)C2(C)C)ccn1,IC50,[13],574 nM
CC(C)Nc1cc(CN2C(=O)N(c3ccc(SC(F)(F)F)cc3)C(=O)C2(C)C)ccn1,IC50,[13],453 nM
CNc1cc(CN2C(=O)N(c3ccc(SC(F)(F)F)cc3)C(=O)C2(C)C)ccn1,IC50,MEF,312 nM
CCNc1cc(CN2C(=O)N(c3ccc(SC(F)(F)F)cc3)C(=O)C2(C)C)ccn1,IC50,MEF,104 nM
same,IC50,[10],47 nM
same,IC50,[14],154 nM
same,IC50,[13],154 nM
CC(=O)Nc1cc(CN2C(=O)N(c3ccc(SC(F)(F)F)cc3)C(=O)C2(C)C)ccn1,IC50,MEF,8 nM
same,IC50,[7],28 nM
same,IC50,[8],7 nM
same,IC50,[9],175 nM
same,IC50,[10],7 nM
same,IC50,[11],7 nM
same,IC50,[14],98 nM
same,IC50,[12],87 nM
same,IC50,[13],98 nM
CC1(C)C(=O)N(c2ccc(SC(F)(F)F)cc2)C(=O)N1Cc1ccnc(N)c1,IC50,MEF,97 nM
same,IC50,[10],34 nM
same,IC50,[14],92 nM
same,IC50,[13],92 nM
C[C@H]1C(=O)N(c2ccc(S(=O)(=O)C(F)(F)F)cc2)C(=O)N1Cc1ccncc1,IC50,[13],1600 nM
C[C@H]1C(=O)N(c2ccc(S(=O)(=O)C(F)(F)F)cc2)C(=O)N1Cc1cccnc1,IC50,[13],79700 nM
C[C@H]1C(=O)N(c2ccc(S(=O)(=O)C(F)(F)F)cc2)C(=O)N1Cc1ccccn1,IC50,[13],> 100000 nM
C[C@H]1C(=O)N(c2ccc(S(=O)(=O)C(F)(F)F)cc2)C(=O)N1Cc1cnc2ccccc2c1,IC50,[13],> 100000 nM
C[C@H]1C(=O)N(c2ccc(S(=O)(=O)C(F)(F)F)cc2)C(=O)N1Cc1c[nH]cn1,IC50,[13],> 100000 nM
C[C@H]1C(=O)N(c2ccc(S(=O)(=O)C(F)(F)F)cc2)C(=O)N1CC1CCNCC1,IC50,[13],> 100000 nM
C[C@H]1C(=O)N(c2ccc(S(=O)(=O)C(F)(F)F)cc2)C(=O)N1Cc1ccccc1,IC50,[13],> 100000 nM
C[C@H]1C(=O)N(c2ccc(S(=O)(=O)C(F)(F)F)cc2)C(=O)N1Cc1cc[n+]([O-])cc1,IC50,[13],> 100000 nM
C[C@H]1C(=O)N(c2ccc(S(=O)(=O)C(F)(F)F)cc2)C(=O)N1Cc1cc[n+]([O-])c2ccccc12,IC50,[13],> 100000 nM
